Laboratory results published in the NIST ThermoML archive (doi:10.1021/je030222n).

Details: Liquid

CCCCCCCCC [nonane]
Closed cell (Static) method
Details | vapor or sublimation pressure [kPa]
322.59 K | 2.34
338.33 K | 4.99
351.53 K | 9
371.37 K | 19.81

CCCCO [butan-1-ol]
Closed cell (Static) method
Details | vapor or sublimation pressure [kPa]
314.19 K | 2.7
323.2 K | 4.49
338.21 K | 10.38
342.17 K | 12.89
352.81 K | 21.44
361.24 K | 31.52
371.94 K | 49.26

CCCCN=C=O [butyl isocyanate]
Details | vapor or sublimation pressure [kPa]
294.15 K | 2.48
323.24 K | 9.52
338.02 K | 17.88
353.02 K | 32.1
362.65 K | 44.82
372.6 K | 61.84
387.87 K | 99.08

CCOC(N)=O [ethyl carbamate]
Closed cell (Static) method
Details | vapor or sublimation pressure [kPa]
322.6 K | 0.88
337.2 K | 1.287
342.3 K | 1.494
352.5 K | 1.957
362.6 K | 2.381
371.7 K | 2.953
